Eight compounds from ChEMBL document CHEMBL1772974, “Optimization of potent, selective, and orally bioavailable pyrrolodinopyrimidine-containing inhibitors of heat shock protein 90. Identification of development candidate …” (J Med Chem, 2011) can be followed below.

≈ marks a conversion by molar mass, not a printed value.

One data set is described as follows: in vitro. The conditions noted are these: human, Caco-2.
Data set [1] can be described thus: Permeability from apical to basolateral side of MDCK cells. To be noted: dog, read-out: permeability. The data set is classed as ADME, cell-based, Canis lupus familiaris.
The nature of data set [2]: Oral bioavailability in Beagle dog at 0.5 mg/kg administered as suspension in 0.5% methylcellulose. To be noted: in vivo. It is filed as ADME, organism-based, Canis lupus familiaris.
Data set [3] can be described thus: Oral bioavailability in Han Wistar rat at 10 mg/kg administered as suspension in 0.5% methylcellulose. It is filed as ADME, organism-based. To be noted: in vivo.
A short description of data set [4]: Volume of distribution at steady state in Beagle dog at 0.5 mg/kg, iv. The data set is classed as ADME, organism-based, Canis lupus familiaris. Also on record: dose 0.5 mg/kg, route intravenous. The conditions noted are these: in vivo, read-out: Vdss.
Data set [5] can be described thus: Oral bioavailability in Han Wistar rat at 10 mg/kg administered as solution in 40% PEG400 in saline. It is filed as ADME, organism-based. To be noted: in vivo.
The nature of data set [6]: Volume of distribution at steady state in Han Wistar rat at […], iv. To be noted: in vivo, read-out: Vdss. It is filed as ADME, organism-based. Also on record: dose 2.5 mg/kg, route intravenous.
Data set [7] can be described thus: Oral bioavailability in Beagle dog at 0.5 mg/kg administered as solution in 40% PEG400 in saline. To be noted: in vivo. It is filed as ADME, organism-based, Canis lupus familiaris.
The nature of data set [8]: Permeability from basolateral to apical side of MDCK cells. The data set is classed as ADME, cell-based, Canis lupus familiaris. To be noted: dog, read-out: permeability.
Data set [9] in a line: Solubility of the compound. The data set is classed as physicochemical.
Data set [10] is described as follows: Toxicity in human A2058 cells xenografted po dosed nu/nu athymic mouse. It is filed as organism-based. The conditions noted are these: in vivo. On the technique in general: A xenograft is tissue or cells of one species grown in another, often human tumour cells in immunodeficient mice.

For `Nc1nc2c(c(-c3c(Cl)cc(Cl)cc3OCCn3cccn3)n1)CN(C(=O)NC1CCC1)C2`, the Papp A→B in the data set “in vitro” amounted to 4.7 ×10⁻⁶ cm/s.

In the data set “in vitro”, `Nc1nc2c(c(-c3c(Cl)cc(Cl)cc3OCCn3cccn3)n1)CN(C(=O)NC1CC1)C2` had a Papp A→B of 0.5 ×10⁻⁶ cm/s.

For the compound `Nc1nc2c(c(-c3c(Cl)cc(Cl)cc3OCCn3cccn3)n1)CN(C(=O)NC1CC(F)(F)C1)C2`, the Papp A→B in “in vitro” was determined as 1.5 ×10⁻⁶ cm/s.

Consider `Nc1nc2c(c(-c3c(Cl)cc(Cl)cc3OCCn3cccn3)n1)CN(C(=O)NC13CC(C1)C3)C2`, for which, in the data set “in vitro”, the Papp A→B is 5 ×10⁻⁶ cm/s.

Compound `Nc1nc2c(c(-c3c(Cl)cc(Cl)cc3OCCn3cccn3)n1)CN(C(=O)NCC(F)F)C2` came in with a Papp A→B in “in vitro” of 1.2 ×10⁻⁶ cm/s.

The compound `Nc1nc2c(c(-c3c(Cl)cc(Cl)cc3OCCn3cccn3)n1)CN(C(=O)NCC(F)(F)F)C2` showed a Papp A→B in “in vitro” of 0.96 ×10⁻⁶ cm/s.

In the case of `Cc1cc(Cl)cc(OCCn2cc(F)cn2)c1-c1nc(N)nc2c1CN(C(=O)NCC(C)(F)F)C2`, the Papp A→B in data set [1] is 2.4 ×10⁻⁶ cm/s. In addition, the bioavailability (in general, the share of a dose that reaches the circulation, judged against a reference dose that is usually intravenous) in [2] is 58%; in [3], 15%; in data set [5] it was 19%; in data set [7], 63%. Besides, the results for the Vd in data set [4] and in data set [6] were 8 L/kg and 9.6 L/kg, respectively. Moreover, the Papp B→A in data set [8] worked out at 11 ×10⁻⁶ cm/s. Besides, in [9], the solubility (in general, the dissolved amount per volume that the medium holds) amounted to 200 µM (≈ 102 µg/mL).

In data set [10], `CO[C@H]1/C=C\C=C(/C)C(=O)NC2=CC(=O)C(NCCN(C)C)=C(C[C@@H](C)C[C@H](OC)[C@H](O)[C@@H](C)/C=C(\C)[C@@H]1OC(N)=O)C2=O` [ALVESPIMYCIN] had an MTD of 10 mg/kg.
